In ChEMBL document CHEMBL1155714, “Spongiadioxins A and B, two new polybrominated dibenzo-p-dioxins from an Australian marine sponge Dysidea dendyi” (J Nat Prod, 2001):
≈ marks a conversion by molar mass, not a printed value.

Columns and labels:
[1] = Cytotoxicity against mouse EAC cells; assay type: functional; conditions: Ehrlich, read-out: ED50 (the source's name)
[2] = Toxicity against mouse; assay type: organism-based; conditions: in vivo

## Oc1cc(Br)c(Br)c2c1Oc1cc(Br)cc(Br)c1O2 [SPONGIADIOXIN A]
[1]
  EC50: 29 µg/mL (≈ 56.2 µM)
[2]
  LD50: > 150 mg/kg

## Oc1c(Br)c(Br)cc2c1Oc1cc(Br)cc(Br)c1O2 [SPONGIADIOXIN B]
[1]
  EC50: 15.5 µg/mL (≈ 30.1 µM)
[2]
  LD50: > 150 mg/kg
